Assay results reported in patent US20080200479A1, “Ocaperidone Salts and Pharmaceutical Compositions Containing the Same” (priority 2005, published 2008).
Converted amounts (≈) assume the structure as drawn. Counter-ions that a name gives are not always drawn.

Columns and labels:
physchem = conditions: for solubility in water (in words): crystalline salt, HPLC grade water pH=6, 25° C., 1 h and 24 h, compared with salts of examples 1, 3-10 and free base
Experimental: In particular, the solubilities of ocaperidone salts were measured as follows:
UV/visible spectrophotometer: Agilent 8453E
Volumetric flask (5 ml, 10 ml, 20 ml, 100 ml) Mechanical pipettes: Biohit (m1000, m200)
Magnetic stirrer: Heidolph MR3001K
A suspension of 100 mg of crystalline ocaperidone salt or ocaperidone free base in 1 ml HPLC grade pure water (pH=6) was prepared. The suspension was kept at fixed and controlled temperature (ex: 25° C.) under magnetic stirring for 24 hours. A sample was taken, filtered and the solubility of the ocaperidone salts or ocaperidone free base was measured after 1 h and 24 h. Results are given in g/100 ml.

[1] = Solubility of ocaperidone free base in acid solution; type: physicochemical; conditions: acid solution at pH=1.3

SMILES | solubility thermodynamic (physchem; 25 °C, pH 6, water, thermodynamic from solid) [µg/mL] | solubility in acid solution [1] [g/100 ml] | solubility in water (in words) (physchem) | solubility in water (in words) (physchem; listed as ocaperidone pyroglutamic salt) | times more soluble than the succinic acid addition salt (physchem; ocaperidone salt solubility study in water, ratio to succinic acid addition salt) [times]
Cc1nc2c(C)cccn2c(=O)c1CCN1CCC(c2noc3cc(F)ccc23)CC1 [ocaperidone, 3-[2-[4-(6-fluoro-1,2-benzisoxazol-3-yl)-1-piperidinyl]ethyl]-2,9-dimethyl-pyrido-[1,2-a]pyrimidin-4-one] | 7 (≈ 16.6 µM) | 0.25 | – | – | –
Cc1nc2c(C)cccn2c(=O)c1CCN1CCC(c2noc3cc(F)ccc23)CC1 [Example 2, Ocaperidone Pyroglutamic Acid Salt] | – | – | higher solubility in water than the other salts | unexpectedly high solubility | 31.2
